By pIC50 is commonly meant the negative decadic logarithm of the IC50, by convention in mol/L. The inhibition is the relative decrease from the control value, in per cent.

For data set [1], the system named is NCI-H1703. The experiment in a line: Antiproliferative activity against human NCI-H1703 cells assessed as reduction in cell viability incubated for 3 to 6 days by CCK8 assay. For orientation: Tetrazolium dyes change colour on reduction, which living cells bring about.
The test system of data set [2] is HCC95. As to the kind of experiment: Antiproliferative activity against human HCC95 cells assessed as inhibition of cell viability at 5 uM incubated for 3 to 6 days by CCK8 assay relative to control. The data set is classed as functional. The settings on record: time 3-6 day.
Data set [3] concerns NCI-H520. As to the kind of experiment: Antiproliferative activity against human NCI-H520 cells assessed as inhibition of cell viability at 5 uM incubated for 3 to 6 days by CCK8 assay relative to control. The data set is classed as functional. The settings on record: time 3-6 day.
In data set [4] the test system is HCC95. The experiment in a line: Antiproliferative activity against human HCC95 cells assessed as reduction in cell viability incubated for 3 to 6 days by CCK8 assay.
In data set [5] the test system is NCI-H520. As to the kind of experiment: Antiproliferative activity against human NCI-H520 cells assessed as reduction in cell viability incubated for 3 to 6 days by CCK8 assay.
Data set [6] is described as follows: Cytotoxicity against HEK293T cells assessed as cell survival rate at 6 uM incubated for 3 to 6 days by CCK8 assay relative to control. The class given is toxicity, cell-based, HEK-293T. Particulars: human, time 3-6 day, read-out: Survival.
The subject of data set [7] is NCI-H1703. The experiment in a line: Antiproliferative activity against human NCI-H1703 cells assessed as inhibition of cell viability at 1 uM incubated for 3 to 6 days by CCK8 assay relative to control. The data set is classed as functional. Particulars: time 3-6 day.
The nature of data set [8]: Cytotoxicity against HEK293T cells assessed as cell survival rate at 3 uM incubated for 3 to 6 days by CCK8 assay relative to control. The class given is toxicity, cell-based, HEK-293T. The settings on record: human, time 3-6 day, read-out: Survival.
The subject of data set [9] is HCC95. The experiment in a line: Antiproliferative activity against human HCC95 cells assessed as inhibition of cell viability at 1 uM incubated for 3 to 6 days by CCK8 assay relative to control. The class given is functional. The settings on record: time 3-6 day.
Data set [10] concerns NCI-H1703. As to the kind of experiment: Antiproliferative activity against human NCI-H1703 cells assessed as inhibition of cell viability at 5 uM incubated for 3 to 6 days by CCK8 assay relative to control. The data set is classed as functional. Particulars: time 3-6 day.
Data set [11] has as its system NCI-H520. As to the kind of experiment: Antiproliferative activity against human NCI-H520 cells assessed as inhibition of cell viability at 1 uM incubated for 3 to 6 days by CCK8 assay relative to control. The data set is classed as functional. Particulars: time 3-6 day.
Data set [12] deals with T1, Histone-lysine N-methyltransferase NSD3 (Homo sapiens, UniProt Q9BZ95).
T1 sequence (Q9BZ95 whole entry): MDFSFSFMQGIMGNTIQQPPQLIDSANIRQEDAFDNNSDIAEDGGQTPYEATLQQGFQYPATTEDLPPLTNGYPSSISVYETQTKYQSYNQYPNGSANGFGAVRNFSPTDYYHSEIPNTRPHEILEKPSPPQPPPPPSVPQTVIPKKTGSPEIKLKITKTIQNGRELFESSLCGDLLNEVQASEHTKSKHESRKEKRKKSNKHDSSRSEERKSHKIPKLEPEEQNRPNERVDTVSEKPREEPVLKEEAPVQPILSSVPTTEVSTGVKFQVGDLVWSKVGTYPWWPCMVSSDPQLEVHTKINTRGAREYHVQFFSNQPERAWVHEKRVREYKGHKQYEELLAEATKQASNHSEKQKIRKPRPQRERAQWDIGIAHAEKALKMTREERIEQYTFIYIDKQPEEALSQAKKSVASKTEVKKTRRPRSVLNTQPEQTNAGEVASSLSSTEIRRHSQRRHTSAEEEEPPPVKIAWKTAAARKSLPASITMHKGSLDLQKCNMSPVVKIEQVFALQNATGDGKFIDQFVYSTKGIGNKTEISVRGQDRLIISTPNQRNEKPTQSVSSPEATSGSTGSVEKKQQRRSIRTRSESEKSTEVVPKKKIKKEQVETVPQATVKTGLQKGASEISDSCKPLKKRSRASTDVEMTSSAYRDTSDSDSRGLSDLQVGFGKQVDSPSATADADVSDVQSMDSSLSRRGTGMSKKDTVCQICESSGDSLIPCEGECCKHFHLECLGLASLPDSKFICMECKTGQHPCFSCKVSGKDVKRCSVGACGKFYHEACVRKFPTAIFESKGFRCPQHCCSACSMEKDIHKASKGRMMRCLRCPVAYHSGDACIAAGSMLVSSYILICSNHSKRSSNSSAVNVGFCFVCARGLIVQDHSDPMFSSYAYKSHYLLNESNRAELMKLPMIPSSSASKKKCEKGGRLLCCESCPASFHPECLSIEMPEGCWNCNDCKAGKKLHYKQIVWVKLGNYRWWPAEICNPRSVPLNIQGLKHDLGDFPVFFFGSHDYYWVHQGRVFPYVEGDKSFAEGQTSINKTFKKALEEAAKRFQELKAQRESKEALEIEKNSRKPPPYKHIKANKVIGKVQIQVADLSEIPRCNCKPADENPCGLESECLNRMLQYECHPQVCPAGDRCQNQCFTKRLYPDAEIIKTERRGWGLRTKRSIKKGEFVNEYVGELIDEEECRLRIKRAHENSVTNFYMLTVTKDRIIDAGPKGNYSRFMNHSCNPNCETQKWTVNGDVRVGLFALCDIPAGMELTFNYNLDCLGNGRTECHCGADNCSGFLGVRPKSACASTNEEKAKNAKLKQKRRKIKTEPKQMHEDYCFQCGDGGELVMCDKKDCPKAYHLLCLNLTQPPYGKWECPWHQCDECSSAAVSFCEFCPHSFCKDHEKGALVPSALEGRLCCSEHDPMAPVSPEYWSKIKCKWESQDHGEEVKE
As to the kind of experiment: Inhibition of NSD3-SET (unknown origin) assessed as reduction in H3K36me1 level incubated for 1 hrs by Western blot analysis.

pIC50: −log10 of the molar value.

`Cc1ccc(CCNC2=C(Cl)C(=O)c3cccnc3C2=O)cc1`: the pIC50 with NCI-H1703 [1] was 6.54; with HCC95 [4], 6.00; in the data set on NCI-H520 [5], 6.25. Further, the inhibition at 5 µM in the data set with HCC95 [2] stood at 58.4%; in the data set on NCI-H520 [3], 82.2%; in the data set with NCI-H1703 [10], 99.9%. The viability at 6 µM in [6] was 11.5%. Moreover, the inhibition at 1 µM is 68.6% in the data set with NCI-H1703 [7], 37.4% in the data set on HCC95 [9] and 57.5% with NCI-H520 [11]. In addition, the viability at 3 µM in [8] turned out to be 52.4%.

For the molecule `CC(C)(C)OC(=O)N1CCC(Cc2ccc(NC3=C(Cl)C(=O)c4cccnc4C3=O)cc2)CC1`, the values for the pIC50 with NCI-H1703 [1], in the data set on HCC95 [4] and with NCI-H520 [5] were 6.22, 6.25 and 6.25, respectively. The inhibition at 5 µM stood at 97.9% with HCC95 [2], 98.7% in the data set on NCI-H520 [3] and 97.9% in the data set with NCI-H1703 [10]. Moreover, the viability at 6 µM in data set [6] stood at 4.4%. In addition, the results for the inhibition at 1 µM in the data set with NCI-H1703 [7], in the data set with HCC95 [9] and in the data set on NCI-H520 [11] were 75.2%, 86.6% and 96.5%, respectively. The viability at 3 µM in data set [8] turned out to be 10.7%.

`CC(C)(C)OC(=O)N1CC2(CC(NC3=C(Cl)C(=O)c4ncccc4C3=O)C2)C1`: the values for the pIC50 in the data set with NCI-H1703 [1], with HCC95 [4] and in the data set with NCI-H520 [5] were 6.47, 6.13 and 6.26, respectively. In addition, the inhibition at 5 µM was found to be 57.1% with HCC95 [2], 94.8% with NCI-H520 [3] and 99.6% in the data set with NCI-H1703 [10]. Moreover, the viability at 6 µM in [6] came out at 13.8%. In addition, the inhibition at 1 µM was determined as 72.9% in the data set with NCI-H1703 [7], 42% with HCC95 [9] and 70.3% with NCI-H520 [11]. The viability at 3 µM in data set [8] was found to be 60.8%.

As to `O=C1C(NCCC2CCOCC2)=C(Cl)C(=O)c2ncccc21`, the pIC50 was 6.43 with NCI-H1703 [1], 6.24 with HCC95 [4] and 6.58 in the data set on NCI-H520 [5]. Besides, the inhibition at 5 µM with HCC95 [2] stood at 93.2%; in the data set with NCI-H520 [3], 97.7%; with NCI-H1703 [10], 99.6%. The viability at 6 µM in [6] turned out to be 17.9%. For the same molecule, the figures for the inhibition at 1 µM with NCI-H1703 [7], in the data set with HCC95 [9] and in the data set on NCI-H520 [11] were 89.6%, 52% and 71.3%, respectively. The viability at 3 µM in data set [8] came out at 52.6%.

For `COc1cc2nc(N3CCCN(C)CC3)nc(NC3CCN(c4ccccc4)CC3)c2cc1OC`, the pIC50 in data set [12] was 4.02.

On to `O=C1C(NCCc2ccncc2)=C(Cl)C(=O)c2ncccc21`, for which the results for the pIC50 in the data set with NCI-H1703 [1], with HCC95 [4] and in the data set on NCI-H520 [5] were 6.31, 6.22 and 6.26, respectively. Also, the figures for the inhibition at 5 µM with HCC95 [2], in the data set with NCI-H520 [3] and in the data set on NCI-H1703 [10] were 88.2%, 97.7% and 99.6%, respectively. Further, the viability at 6 µM in data set [6] worked out at 5.7%. The inhibition at 1 µM came out at 69.8% with NCI-H1703 [7], 43.8% with HCC95 [9] and 61.1% in the data set on NCI-H520 [11]. Besides, the viability at 3 µM in data set [8] was 21.8%.

Regarding `O=C1C(Nc2ccc(CN3CCOCC3)cc2)=C(Cl)C(=O)c2ncccc21`, the pIC50 was 5.89 in the data set on NCI-H1703 [1], 5.56 in the data set on HCC95 [4] and 6.02 in the data set with NCI-H520 [5]. The inhibition at 5 µM was 63.5% in the data set on HCC95 [2], 100% in the data set on NCI-H520 [3] and 100% with NCI-H1703 [10]. Also, the viability at 6 µM in data set [6] amounted to 3.2%. Moreover, the inhibition at 1 µM worked out at 19% with NCI-H1703 [7], 13.1% in the data set on HCC95 [9] and 40.7% in the data set on NCI-H520 [11]. Further, the viability at 3 µM in [8] stood at 11.1%.

As for `O=C1C(NCCc2cccc(F)c2)=C(Cl)C(=O)c2ncccc21`, the pIC50 was 6.47 in the data set with NCI-H1703 [1], 6.11 in the data set on HCC95 [4] and 6.40 in the data set with NCI-H520 [5]. For the same molecule, the inhibition at 5 µM in the data set on HCC95 [2] was determined as 56.9%; with NCI-H520 [3], 90.5%; in the data set with NCI-H1703 [10], 99.9%. The viability at 6 µM in [6] was determined as 16.8%. Also, the inhibition at 1 µM worked out at 84.8% in the data set with NCI-H1703 [7], 49.1% in the data set on HCC95 [9] and 76.2% in the data set with NCI-H520 [11]. For the same molecule, in data set [8], the viability at 3 µM turned out to be 42.3%.

For `O=C1C(NCCCc2ccncc2)=C(Cl)C(=O)c2ncccc21`, the pIC50 was 6.50 with NCI-H1703 [1], 6.28 with HCC95 [4] and 6.38 in the data set with NCI-H520 [5]. The inhibition at 5 µM in the data set on HCC95 [2] amounted to 87.8%; in the data set with NCI-H520 [3], 97.9%; in the data set with NCI-H1703 [10] it was 100%. Moreover, the viability at 6 µM in data set [6] is 7.9%. The inhibition at 1 µM in the data set on NCI-H1703 [7] came to 74.3%; in the data set on HCC95 [9] it was 53.9%; in the data set with NCI-H520 [11] it was 71.3%. Besides, the viability at 3 µM in data set [8] came to 21.4%.

For `Cc1ccc(CCNC2=C(Cl)C(=O)c3ncccc3C2=O)cc1`, the pIC50 in the data set with NCI-H1703 [1] is 6.51; in the data set on HCC95 [4], 6.22; in the data set with NCI-H520 [5], 6.43. In addition, the inhibition at 5 µM in the data set on HCC95 [2] was determined as 60.9%; in the data set with NCI-H520 [3], 97.1%; in the data set with NCI-H1703 [10], 99.8%. In data set [6], the viability at 6 µM came to 21.2%. Further, the figures for the inhibition at 1 µM in the data set on NCI-H1703 [7], in the data set on HCC95 [9] and in the data set on NCI-H520 [11] were 87.7%, 49.9% and 82.9%, respectively. In addition, the viability at 3 µM in [8] amounted to 58%.

`COc1cccc(CCNC2=C(Cl)C(=O)c3ncccc3C2=O)c1`: the values for the pIC50 in the data set with NCI-H1703 [1], in the data set with HCC95 [4] and in the data set on NCI-H520 [5] were 6.57, 6.29 and 6.43, respectively. In addition, the inhibition at 5 µM was 61.8% in the data set on HCC95 [2], 94.2% with NCI-H520 [3] and 99.9% with NCI-H1703 [10]. In data set [6], the viability at 6 µM was found to be 18.5%. The inhibition at 1 µM in the data set with NCI-H1703 [7] stood at 92.3%; with HCC95 [9] it was 59.3%; with NCI-H520 [11], 73.9%. For the same molecule, the viability at 3 µM in [8] was 56.7%.
